Entries after “also recorded” stand apart in the source; their conditions may differ.

The values below come from patent US20060223117A1, “Novel splice variants of human epithelial sodium channel genes expressed in human taste tissue and uses thereof” (SENOMYX, INC., priority 2005, published 2006).

In assay [1] the test system is intensity of sodium chloride. As to conditions: humans; concentrations that specifically inhibit ENaC function; cited from earlier work.
For another assay, the system named is perceived salt intensity. In words: Senomyx human taste experiments, perceived salt intensity. Type of assay: in vivo.

Regarding `N=C(N)NC(=O)c1nc(Cl)c(N)nc1N` [amiloride], the “reduction of the intensity of sodium chloride” value in assay [1] is reported as 15-20%. The “effect on perceived salt intensity” value in the assay on perceived salt intensity (tested at levels 300-fold above IC50 values in oocytes) is “did not exhibit a significant effect; also recorded: did not demonstrate a significant effect”.

For the molecule `NC(=Nc1ccccc1)NC(=O)c1nc(Cl)c(N)nc1N` [phenamil], the “effect on perceived salt intensity” value in the assay on perceived salt intensity (tested at levels 3000-fold (printed: for benzamil) above IC50 values in oocytes) was “did not demonstrate a significant effect”; in the assay on perceived salt intensity (tested at levels 3000-fold (printed: for benzamil) above IC50 values in oocytes, listed as phenomil) it was “did not exhibit a significant effect”.
